Values after ≈ are worked out from the molar mass of the structure shown. Counter-ions that a name gives are not always drawn. Like-named read-outs stand apart in the source and are kept apart here.
What was measured:
[1] = biological target: alanine racemase enzyme from P. aeruginosa (Pseudomonas aeruginosa, UniProt Q9HTQ2, A178S/N326M/S138R/S262R); assay: biochemical; details: for inhibition at 2500 µM: read-out: In % (percent inhibition of alanine racemase)
[2] = biological target: T1, alanine racemase enzyme from S. aureus (Staphylococcus aureus, UniProt P63479); assay: biochemical; details: for inhibition at 2500 µM: read-out: In % (percent inhibition of alanine racemase)
T1 sequence (P63479 1-382): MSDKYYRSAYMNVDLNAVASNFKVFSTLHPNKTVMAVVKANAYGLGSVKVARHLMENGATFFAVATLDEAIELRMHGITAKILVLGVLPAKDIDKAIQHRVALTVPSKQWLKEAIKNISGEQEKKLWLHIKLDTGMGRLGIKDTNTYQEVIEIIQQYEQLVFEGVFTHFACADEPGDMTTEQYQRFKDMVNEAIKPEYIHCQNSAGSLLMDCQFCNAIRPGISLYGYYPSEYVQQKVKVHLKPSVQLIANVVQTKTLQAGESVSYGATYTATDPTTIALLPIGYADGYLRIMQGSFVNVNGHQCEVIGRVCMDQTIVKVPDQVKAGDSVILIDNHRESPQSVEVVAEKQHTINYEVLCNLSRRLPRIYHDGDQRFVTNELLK

[3] = biological target: alanine racemase enzyme from M. tuberculosis (Mycobacterium tuberculosis, UniProt P9WQA9, DEL103-104); format: biochemical
alanine racemase enzyme from M. tuberculosis, sequence (P9WQA9 whole entry, looked up, stated change not applied): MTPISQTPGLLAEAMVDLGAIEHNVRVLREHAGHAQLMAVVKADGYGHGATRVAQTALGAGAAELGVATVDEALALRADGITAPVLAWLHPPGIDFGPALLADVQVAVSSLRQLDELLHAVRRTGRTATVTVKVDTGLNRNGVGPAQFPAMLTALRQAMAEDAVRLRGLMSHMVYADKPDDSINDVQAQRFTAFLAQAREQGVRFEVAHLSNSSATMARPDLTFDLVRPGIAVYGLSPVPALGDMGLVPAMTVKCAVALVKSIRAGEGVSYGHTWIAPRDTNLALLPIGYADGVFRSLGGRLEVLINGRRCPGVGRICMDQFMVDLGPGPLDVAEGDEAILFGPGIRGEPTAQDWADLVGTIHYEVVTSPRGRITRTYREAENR

[4] = biological target: alanine racemase enzyme from E. Coli (Escherichia coli, UniProt P0A6B4); assay: biochemical; details: for inhibition at 2500 µM: read-out: In % (percent inhibition of alanine racemase)
alanine racemase enzyme from E. Coli, sequence (P0A6B4 whole entry): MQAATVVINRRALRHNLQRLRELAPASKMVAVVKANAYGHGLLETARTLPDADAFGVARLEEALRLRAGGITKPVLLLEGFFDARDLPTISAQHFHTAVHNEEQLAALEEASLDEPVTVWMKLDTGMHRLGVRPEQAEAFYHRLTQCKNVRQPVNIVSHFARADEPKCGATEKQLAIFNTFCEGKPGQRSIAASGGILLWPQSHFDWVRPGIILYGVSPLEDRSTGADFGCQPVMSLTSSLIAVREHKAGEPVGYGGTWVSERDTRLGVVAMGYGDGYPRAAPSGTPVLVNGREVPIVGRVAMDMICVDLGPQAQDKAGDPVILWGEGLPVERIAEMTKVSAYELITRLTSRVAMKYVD

S. aureus = assay: microbe, parasite or virus in culture; format: cell-based
E. Coli = assay: microbe, parasite or virus in culture; format: cell-based
M. tuberculosis [5] = format: cell-based
M. tuberculosis [6] = assay: microbe, parasite or virus in culture; format: cell-based
[7] = P. aeruginosa ALR, % Inhibition at 2.5 mM
[8] = P. aeruginosa ALR, read-out: Ki
[9] = S. aureus ALR, % Inhibition at 2.5 mM
[10] = E. Coli ALR, % Inhibition at 2.5 mM
[11] = TB Assay of Hydroxamate Candidates, DMSO control 7, Water control 8
[12] = Mycobacterium tuberculosis, MGIT Assay, read-out: MIC
[13] = Staphylococcus aureus, read-out: MIC
[14] = Escherichia coli, read-out: MIC

alanine racemase enzyme from P. aeruginosa, sequence (Q9HTQ2 whole entry S138R/A178S/S262R/N326M): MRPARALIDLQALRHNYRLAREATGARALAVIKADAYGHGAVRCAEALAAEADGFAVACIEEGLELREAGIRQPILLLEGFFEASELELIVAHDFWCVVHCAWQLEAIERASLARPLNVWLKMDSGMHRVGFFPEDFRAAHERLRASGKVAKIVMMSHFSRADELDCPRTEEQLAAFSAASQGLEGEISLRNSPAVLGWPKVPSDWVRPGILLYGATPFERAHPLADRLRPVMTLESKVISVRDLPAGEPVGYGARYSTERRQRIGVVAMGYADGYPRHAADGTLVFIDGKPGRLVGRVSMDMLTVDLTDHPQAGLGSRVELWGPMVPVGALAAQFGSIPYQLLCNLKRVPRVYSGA

Row | Compound | In % (percent inhibition of alanine racemase) [1, 7] [%] | Ki [1, 8] [µM] | inhibition at 2500 µM [2, 9] [%] | Ki ([2]; S. aureus ALR, read-out: Ki) [µM] | In % (percent inhibition of alanine racemase) [3] [%] | inhibition at 2500 µM [4, 10] [%] | Ki ([4]; E. Coli ALR, read-out: Ki) [µM] | MIC (S. aureus) [mM] | MIC (E. Coli) [mM] | inhibition at 2500 µM [1, 7] [%] | % In in TB-ALR-assay [3] [%] | Days of Detection (M. tuberculosis [5]; [11]) [days] | MIC (M. tuberculosis [6]; [12]) [µg/mL] | MIC (S. aureus; [13]) [mM] | MIC (E. Coli; [14]) [mM] | Ki ([1]; Ki) [µM] | inhibition at 2500 µM [1] [%] | inhibition at 2500 µM [2] [%] | Ki ([4]; Ki) [µM] | inhibition at 2500 µM [4] [%] | other results
1 | NCC(=O)NO [TFA•H2NCH2G(O)NHOH, glycine hydroxamic trifluoracetic acid] | 112 ± 7 | 20 | 99 ± 3 | 23 | 104 ± 4 | 94 ± 4 | 78 | >5 | >5 | – | – | – | – | – | – | – | – | – | – | – | –
2 | NC(CO)C(=O)NO (stereo not shown) [H2NCH(CH2OH)C(O)NHOH] | – | 5100 | 19 ± 8 | 7200 | 33 ± 8 | 0 | – | – | – | 28 ± 5 | 33 | 21.5 | 100 (≈ 833 µM) | > 5 | > 5 | – | – | – | – | – | –
3 | Cl.NCC(=O)NO [HCl•H2NCH2C(O)NHOH, Glycine Hydroxamic Acid Hydrochloride] | – | – | – | – | 105 ± 6 | – | – | >5 | – | – | 100 | – | – | – | – | 201 | 114 ± 14 | 95 ± 1 | 268 | 88 ± 4 | Ki ([2]; Ki): 217 µM; Days of Detection (M. tuberculosis [5]): 16.5 days; MIC (M. tuberculosis [6]; Mycobacterium tuberculosis): 200 µg/mL; MIC (E. Coli; Escherichia coli): > 5 mM
4 | CONC(=O)CN.O=C(O)C(F)(F)F [TFA•H2NCH2C(O)NHOCH3, O-Methylglycine Hydroxamic Acid Trifluoroacetic Acid] | – | 1510 | 47 | 1850 | 66 | 67 | 1340 | – | – | 55 | 66 | >40 | 50 | > 5 | > 5 | – | – | – | – | – | –
5 | NC(=O)OCC(N)C(=O)NO (stereo not shown) [H2NCH(CH2OCONH2)C(O)NILIOH] | – | 30 | 93 ± 4 | 56 | 97 ± 5 | 96 ± 8 | 8 | – | – | 94 ± 5 | – | – | – | > 5 | > 5 | – | – | – | – | – | –
6 | N[C@@H]1CON=C1O [D-cycloserine, reference compound] | – | 10 | 94 | 10 | 93 | 93 | 10 | – | – | 95 | 96 | >40 | < 12.5 | 0.2 (≈ 20.4 µg/mL) | – | – | – | – | – | – | –
7 | C[C@H](N)C(=O)NO.Cl [HCl•H2NCH(CH3)C(O)NHOH*, L-Alanine Hydroxamic Acid Hydrochloride] | – | – | – | – | – | – | – | – | – | – | – | – | – | – | – | 1060 | 33 ± 2 | 32 ± 8 | 2780 | 39 ± 8 | Ki ([2]; Ki): 1300 µM; melting point: 178 to 180 °C; MIC (S. aureus; Staphylococcus aureus): > 5 mM; MIC (E. Coli; Escherichia coli): > 5 mM
8 | NCC(=O)NO [H2NOH2G(O)NHOH] | 90 ± 2 | 33 | – | 34 | 100 ± 2 | – | 75 | >5 | >5 | – | – | – | – | – | – | – | – | – | – | – | In % (percent inhibition of alanine racemase) [2, 9]: 92 ± 3%; In % (percent inhibition of alanine racemase) [4, 10]: 90 ± 4%
9 | Cl.NCCC(=O)NO [HCl•H2NCH2CH2C(O)NHOH, β-Alanine Hydroxamic Acid Hydrochloride] | – | – | – | – | 79 ± 12 | – | – | – | – | – | 79 | – | – | – | – | 894 | 34 ± 9 | 49 ± 12 | 1210 | 37 ± 10 | Ki ([2]; Ki): 401 µM; Days of Detection (M. tuberculosis [5]): 8.5 days; melting point: 140 to 142 °C; MIC (M. tuberculosis [6]; Mycobacterium tuberculosis): > 200 µg/mL; MIC (S. aureus; Staphylococcus aureus): > 5 mM; MIC (E. Coli; Escherichia coli): > 5 mM
10 | CC(N)C(=O)NO (stereo not shown) [HzNGH(~Ha)G(O)NHOH] | – | 656 | 57 ± 4 | 810 | 48 ± 9 | 58 ± 2 | 756 | – | – | 66 ± 3 | – | – | – | > 5 | > 5 | – | – | – | – | – | –
11 | N,O-Methylglycine Hydroxamic Acid Trifluoroacetic Acid [TFA•H2NCH2C(O)N(CH3)OCH3] | 68 ± 5 | 633 | – | 590 | 66 ± 4 | – | 875 | >5 | >5 | – | 66 | – | – | – | – | – | – | – | – | – | In % (percent inhibition of alanine racemase) [2, 9]: 66 ± 3%; Ki [3]: 644 µM; In % (percent inhibition of alanine racemase) [4, 10]: 49 ± 2%; Days of Detection (M. tuberculosis [5]): 9 days; MIC (M. tuberculosis [6]): >200 µg/mL
12 | NCC(=O)NO [H2NCH2C(O)NHOH, glycine hydroxamic acid] | 94 ± 1 | 65 | – | 90 | 100 ± 1 | – | 39 | >0.5 | >5 | – | 100 | >40 | 50 (≈ 555 µM) | – | – | – | – | – | – | – | In % (percent inhibition of alanine racemase) [2, 9]: 91 ± 3%; In % (percent inhibition of alanine racemase) [4, 10]: 90 ± 5%
13 | C[C@@H](N)C(=O)NO [Hcl•H2NCH(CH3)C(O)NHOH, D-Alanine Hydroxamic Acid Hydrochloride] | – | – | – | – | – | – | – | – | – | – | – | – | – | – | – | 1010 | 29 ± 6 | 33 ± 6 | 5200 | 35 ± 7 | Ki ([2]; Ki): 2680 µM; MIC (S. aureus; Staphylococcus aureus): > 5 mM; MIC (E. Coli; Escherichia coli): > 5 mM
14 | CNCC(=O)NO [CH3NHCH2C(O)NHOH, Sarcosine Hydroxamic Acid] | – | – | – | 14300 | 81 ± 7 | – | – | – | – | – | 81 | – | – | – | – | 18200 | 24 ± 5 | 28 ± 5 | 5700 | 34 ± 12 | Days of Detection (M. tuberculosis [5]): 32.5 days; melting point: 140 to 141 °C; MIC (M. tuberculosis [6]; Mycobacterium tuberculosis): 200 µg/mL (≈ 1920 µM); MIC (S. aureus; Staphylococcus aureus): > 5 mM; MIC (E. Coli; Escherichia coli): > 5 mM
15 | NC(=O)C(=O)NO [H2NC(O)C(O)NHOH, N-Hydroxyoxalamide] | – | 16 | 97 | 17 | 93 ± 8 | 97 ± 4 | 52 | – | – | 99 ± 4 | 93 | 32 | 50 (≈ 480 µM) | > 5 | > 5 | – | – | – | – | – | –
16 | N-Benzylglycine Hydroxamic Acid [PhCH2NHCH2C(O)NHOH] | 39 ± 9 | 1240 | – | 1980 | 88 ± 3 | – | 1840 | >5 | >5 | – | 88 | 18.5 | – | – | – | – | – | – | – | – | In % (percent inhibition of alanine racemase) [2, 9]: 53 ± 13%; Ki [3]: 519 µM; In % (percent inhibition of alanine racemase) [4, 10]: 0.58 ± 3%; MIC (M. tuberculosis [6]; MGIT Assay): 50 µg/mL
